# Assay results as given in patent US20050101668A1, “Aminotetralin derivatives as a medicament for the treatment and prevention of myocardial ischemic conditions” (Chiesi Farmaceutici S.p.A., priority 2003, published 2005).
# What was measured:
# [1] = test system: isolated perfused rat heart; test: Isolated perfused rat heart, low flow ischemia/reperfusion: heart mechanics (LVEDP, LVDevP, CPP); conditions: antagonist alone 1 μM, pre-ischemic period, mean ± S.E.M.
# Method: (§1) In brief, the rats were anaesthetized with sodium pentobarbital (60 mg/kg) given by intraperitoneal injection. The chest were opened, and the heart was rapidly excised, and placed in cold (4° C.) heparinized (20 units/ml) Krebs Henseleit solution. […] Coronary perfusion pressure (CPP), left ventricular pressure (LVP) and left ventricular developed pressure (LVDevP; peak left ventricular systolic pressure minus LVEDP) were measured.
# (§2) After equilibration of 15 min, hearts were paced at 300 beats/min with an electrical stimulator via two silver electrodes attached to the right atrium and an additional 30 min of perfusion was carried out (pre-ischemic period). Ischemia was induced by reducing the flow rate from 15 ml/min to 1 ml/min for 20 min (ischemic period). A normal flow rate (15 ml/min) was then restored and the perfusion was continued for another 30 min (reperfusion period).
# [2] = test system: isolated perfused rat heart; test: Creatine kinase (CK) and lactate dehydrogenase (LDH) activities in heart perfusates; conditions: antagonist alone 1 μM; mU/min/g w.w. vs time 20 to 50 min; mean ± S.E.M.
# Method: as §1, §2
# The perfusate, eluted from the heart during pre-ischemic and reperfusion periods, was collected in an ice-cooled beaker as 2.5-min samples collection. Each sample was used for the determination of CK and LDH activities by means of a spectrophotometrical method.
smiles,measurement,setting,value
"COC(=O)[C@H]1[C@H]2C[C@H]3c4[nH]c5ccccc5c4CCN3C[C@H]2CC[C@@H]1O [Rauwolscine, rauwolscine]",AUC related to LVEDP,[1]; mm Hg vs time 0 to 50 min,505 ± 64
same,AUC related to CPP,[1]; mm Hg vs time 20 to 50 min,1680 ± 98
same,AUC related to LVDevP,[1]; mm Hg vs time 20 to 50 min,912 ± 64
same,AUC related to CK,[2],5584 ± 297
same,AUC related to LDH,[2],12988 ± 522
